Source: ChEMBL document CHEMBL6115028, “An Amazing 30-Year Journey around the DABO Family: A Medicinal Chemistry Lesson on a Versatile Class of Non-nucleoside HIV-1 Reverse Transcriptase Inhibitors” (J Med Chem, 2025)
Each block holds one molecule with its values, some of them ahead of it.

Experiments:
[1] = tested on: Human immunodeficiency virus 1; experiment: Antiviral activity against wild type HIV-1 NL4-3 infected in human MT4 cells assessed as reduction in viral replication measured for 72 hrs by ELISA analysis; assay type: functional, organism-based; conditions: Human immunodeficiency virus 1, NL4-3, MT4, 72 h
[2] = Binding affinity to HIV-1 reverse transcriptase Y181L mutant assessed as inhibition constant; design: species or system Human immunodeficiency virus 1
Reverse transcriptase [3] = molecular target: T1, Reverse transcriptase (Human immunodeficiency virus 1, UniProt Q9WKE8, K103N); experiment: Binding affinity to HIV-1 reverse transcriptase K103N mutant assessed as inhibition constant
[4] = tested on: Human immunodeficiency virus 1; experiment: Antiviral activity against wild type HIV-1 IIIB infected in human MT4 cells assessed as protection against virus-induced cytopathic effect incubated for 5 days by MTT assay; assay type: functional; conditions: Human immunodeficiency virus 1, IIIB, MT4, 120 h; time 5 day; read-out: ED50 (the source's name)
MT4 [5] = experiment: Cytotoxicity against human MT4 cells assessed as reduction in cell growth incubated for 5 days by MTT assay; assay type: functional; conditions: MT4, 120 h, time 5 day
[6] = tested on: Human immunodeficiency virus 1; experiment: Antiviral activity against HIV-1 3B infected in human MT4 cells assessed as reduction in viral replication incubated for 5 days by MTT assay; assay type: functional, organism-based; conditions: Human immunodeficiency virus 1, 3B, MT4, 120 h
[7] = tested on: Human immunodeficiency virus 1; experiment: Antiviral activity against wild type HIV-1 IIIB infected in human MT4 cells assessed as protection against virus-induced cytopathic effect incubated for 72 hrs by MTT assay; assay type: functional, organism-based; conditions: Human immunodeficiency virus 1, IIIB, MT4, 72 h
MT4 [8] = experiment: Cytotoxicity against human MT4 cells; assay type: functional
[9] = molecular target: T2, Human immunodeficiency virus type 1 reverse transcriptase (Human immunodeficiency virus 1, UniProt Q72547); experiment: Inhibition of wild type HIV-1 Reverse transcriptase
[10] = tested on: Human immunodeficiency virus 1; experiment: Antiviral activity against wild type HIV-1 NL4-3 infected in human MT4 cells assessed as reduction in viral replication; assay type: functional, organism-based; conditions: Human immunodeficiency virus 1, NL4-3, MT4; read-out: EC50
[11] = tested on: Human immunodeficiency virus 1; experiment: Antiviral activity against HIV-1 NL4-3 harboring infected Y181C mutant infected in human MT4 cells assessed as reduction in viral replication; assay type: functional, organism-based; conditions: Human immunodeficiency virus 1, NL4-3, MT4
[12] = tested on: Human immunodeficiency virus 1; experiment: Antiviral activity against NNRTI-resistant HIV-1 harboring E138K mutant infected in human MT4 cells assessed as protection against virus-induced cytopathic effect by MTT assay; assay type: functional, organism-based; conditions: Human immunodeficiency virus 1, MT4
[13] = tested on: Human immunodeficiency virus 1; experiment: Antiviral activity against HIV-1 NL4-3 harboring infected K103N mutant infected in human MT4 cells assessed as reduction in viral replication; assay type: functional, organism-based; conditions: Human immunodeficiency virus 1, NL4-3, MT4
[14] = tested on: Human immunodeficiency virus 1; experiment: Antiviral activity against wild-type HIV-1 IIIB infected in human MT4 cells assessed as reduction in virus-induced cytopathic effect incubated for 5 days by MTT assay; assay type: functional, organism-based; conditions: Human immunodeficiency virus 1, IIIB, MT4, 120 h
MT4 [15] = experiment: Cytotoxicity against human MT4 cells assessed as reduction in cell growth after 5 days by MTT assay; assay type: functional; conditions: MT4, 120 h, time 5 day
[16] = Cytotoxicity against human PBMC cells; assay type: toxicity, cell-based
[17] = tested on: Human immunodeficiency virus 1; experiment: Antiviral activity against HIV-1 harboring RT K103N mutant infected in human MT4 cells assessed as protection against virus-induced cytopathic effect measured for 5 days by MTT assay; assay type: functional, organism-based; conditions: Human immunodeficiency virus 1, MT4, 120 h
[18] = molecular target: T2, Human immunodeficiency virus type 1 reverse transcriptase; experiment: Inhibition of recombinant HIV-1 reverse transcriptase associated RNA-dependent DNA polymerase activity incubated for 30 mins by liquid scintillation method
MT4 [19] = experiment: Cytotoxicity against human MT4 cells assessed as reduction in cell viability after 5 days by MTT assay; assay type: functional; conditions: MT4, 120 h, time 5 day
[20] = Selectivity index, ratio of CC50 for human MT4 cells to EC50 for antiviral activity against HIV1 infected in human MT4 cells; assay type: toxicity, cell-based; conditions: read-out: Ratio CC50/EC50
[21] = tested on: Human immunodeficiency virus 1; experiment: Antiviral activity against HIV-1 infected in human MT4 cells assessed as reduction in virus-induced cytopathic effect incubated for 5 days by Cell Titer-Glo luminescent assay; assay type: functional, organism-based; conditions: Human immunodeficiency virus 1, MT4, 120 h
[22] = tested on: Human immunodeficiency virus 1; experiment: Antiviral activity against HIV-1 NL4-3 harboring infected Y188L mutant infected in human MT4 cells assessed as reduction in viral replication; assay type: functional, organism-based; conditions: Human immunodeficiency virus 1, NL4-3, MT4
MT4 [23] = experiment: Cytotoxicity against human MT4 cells assessed as reduction in cell viability incubated for 4 days by MTT assay; assay type: functional; conditions: MT4, 96 h, time 4 day
[24] = tested on: Human immunodeficiency virus 1; experiment: Antiviral activity against […] infected in human MT4 cells assessed as reduction in cytopathic effect measured after 4 days by MTT assay; assay type: functional, organism-based; conditions: Human immunodeficiency virus 1, IIIB, MT4, 96 h
[25] = tested on: Human immunodeficiency virus 1; experiment: Antiviral activity against wild type HIV-1 IIIB harboring Y181C/K103N double mutant infected in human MT4 cells assessed as reduction in cytopathic effect measured after 4 days by MTT assay; assay type: functional, organism-based; conditions: Human immunodeficiency virus 1, IIIB, MT4, 96 h
[26] = tested on: Human immunodeficiency virus 1; experiment: Antiviral activity against wild type HIV-1 IIIB infected in human MT4 cells assessed as reduction in cytopathic effect measured after 4 days by MTT assay; assay type: functional, organism-based; conditions: Human immunodeficiency virus 1, IIIB, MT4, 96 h
Reverse transcriptase [27] = molecular target: T1, Reverse transcriptase; experiment: Inhibition of HIV-1 Reverse transcriptase K103N mutant
MT2 = experiment: Cytotoxicity against human MT2 cells; assay type: functional

SMILES: Cc1c(C(C)c2c(F)cccc2F)nc(N(C)C(C)C)[nH]c1=O (configuration not stated)
EC50 [1]: 5 nM
Ki [2]: 1190 nM
Ki (Reverse transcriptase [3]): 80 nM

SMILES: CCc1c(Cc2cc(C)cc(C)c2)n2c(nc1=O)SCCOC2
EC50 [4]: 600 nM

SMILES: CCC(C)Sc1nc(Cc2cc(C)cc(C)c2)cc(=O)[nH]1 (configuration not stated)
CC50 (MT4 [5]): 150000 nM
EC50 [6]: 1200 nM

SMILES: CC(c1cc(=O)[nH]c(N(C)C)n1)c1c(F)cccc1Cl (configuration not stated)
EC50 [1]: 7 nM
Ki (Reverse transcriptase [3]): 1000 nM

SMILES: Cc1cc(C)cc(Cc2nc(Sc3cccc4ccccc34)[nH]c(=O)c2C)c1
EC50 [7]: 1600 nM
CC50 (MT4 [8]): > 100000 nM

SMILES: COc1ccc(Cn2cc(CSc3nc(Cc4c(Cl)cccc4Cl)c(C)c(=O)[nH]3)nn2)cc1
IC50 [9]: 4560 nM
CC50 (MT4 [8]): 29000 nM

SMILES: Cc1c(C(C)c2c(F)cccc2F)nc(N(C)Cc2ccc([N+](=O)[O-])cc2)[nH]c1=O (configuration not stated)
EC50 [10]: 10 nM
EC50 [11]: 814 nM
EC50 [12]: 518 nM
EC50 [13]: 518 nM

SMILES: CCN(C)c1nc(C(C)c2c(F)cccc2F)c(C)c(=O)[nH]1 (configuration not stated)
EC50 [1]: 3 nM
Ki [2]: 4000 nM
Ki (Reverse transcriptase [3]): 500 nM

IC50 [9]: 30 nM
SMILES: CCCNc1nc(C(C)c2c(F)cccc2F)c(C)c(=O)[nH]1 (configuration not stated)
EC50 [14]: 20 nM
CC50 (MT4 [15]): > 200000 nM

SMILES: CCC(C)Sc1nc(Cc2cc(C)cc(C)c2)c(C)c(=O)[nH]1 (configuration not stated)
CC50 (MT4 [5]): 86000 nM
EC50 [6]: 600 nM

SMILES: CCc1c(Cc2cc(C)cc(C)c2)nc2n(c1=O)COCCS2
EC50 [4]: 1600 nM

SMILES: Nc1cc(Cl)nc(Sc2ccccc2)n1
CC50 [16]: 207000 nM

SMILES: O=C1c2ccccc2C(=O)N1CCSc1nc(Cc2c(F)cccc2F)cc(=O)[nH]1
EC50 [17]: 100000 nM
CC50 (MT4 [8]): > 100000 nM

SMILES: CCOC1CSc2nc(=O)c(CC)c(Cc3cc(C)cc(C)c3)n21 (configuration not stated)
EC50 [4]: 700 nM

IC50 [18]: 28000 nM
SMILES: CCC(C)Oc1nc(Sc2ccccc2)nc(N)c1C (configuration not stated)
CC50 (MT4 [19]): > 364000 nM
selectivity ratio [20]: > 45
EC50 [21]: 8000 nM

SMILES: Cc1cc(C)cc(Cc2nc(Sc3cccnc3)[nH]c(=O)c2C)c1
EC50 [7]: 1600 nM
CC50 (MT4 [8]): 55000 nM

SMILES: CSc1nc(N)c(C)c(C(=O)c2ccc(F)cc2)n1
EC50 [1]: 580 nM
EC50 [11]: 210 nM
EC50 [13]: 5950 nM
EC50 [22]: 210 nM

SMILES: Cc1c(C(O)c2c(F)cccc2F)nc(N(C)C)[nH]c1=O (configuration not stated)
CC50 (MT4 [23]): 50000 nM
EC50 [24]: > 50000 nM
EC50 [25]: > 50000 nM
EC50 [26]: 1000 nM

SMILES: CCC(C)Oc1nc(Cc2cc(C)cc(C)c2)c(C)c(=O)[nH]1 (configuration not stated)
IC50 [18]: 2000 nM
CC50 (MT4 [19]): > 333000 nM
selectivity ratio [20]: > 416
EC50 [21]: 800 nM

SMILES: COc1ccc(CNc2nc(C(C)c3c(F)cccc3F)cc(=O)[nH]2)cc1 (configuration not stated)
IC50 (Reverse transcriptase [27]): 5000 nM
EC50 [10]: 3 nM
EC50 [11]: 60 nM
EC50 [13]: 2230 nM
EC50 [22]: > 5000 nM

SMILES: CSc1nc(C(C)C)c(Cc2ccccc2)n1COCc1ccccc1
CC50 (MT2): 29000 nM

SMILES: Cc1cccc(Cc2cc(=O)[nH]c(OC3CCCCC3)n2)c1
IC50 [18]: 1800 nM
CC50 (MT4 [19]): > 335000 nM
selectivity ratio [20]: > 418
EC50 [21]: 800 nM

SMILES: COc1ccc(CN(C)c2nc(C(C)c3c(F)cccc3F)cc(=O)[nH]2)cc1 (configuration not stated)
IC50 (Reverse transcriptase [27]): 1050 nM
EC50 [10]: 2 nM
EC50 [11]: 1610 nM
EC50 [13]: 3 nM
EC50 [22]: 10 nM
